# In US6232450A, “Inhibition of human fucosyltransferases with N-linked Lewis-x and LacNAc analogs” (The Scripps Research Institute, priority 1999, dated 2001):
# Test system: not given
# Test: not given
# Settings: known from literature (Hanozet et al.); cited from earlier work
row,SMILES,pKa
1,C[C@@H]1N[C@H](COCc2ccccc2)[C@@H](OCc2ccccc2)[C@H](OCc2ccccc2)[C@@H]1OCc1ccccc1 [compound 5],unusually low

# Molecular target: T1, FucT V (Homo sapiens, UniProt Q11128)
# T1 sequence (Q11128 1-374): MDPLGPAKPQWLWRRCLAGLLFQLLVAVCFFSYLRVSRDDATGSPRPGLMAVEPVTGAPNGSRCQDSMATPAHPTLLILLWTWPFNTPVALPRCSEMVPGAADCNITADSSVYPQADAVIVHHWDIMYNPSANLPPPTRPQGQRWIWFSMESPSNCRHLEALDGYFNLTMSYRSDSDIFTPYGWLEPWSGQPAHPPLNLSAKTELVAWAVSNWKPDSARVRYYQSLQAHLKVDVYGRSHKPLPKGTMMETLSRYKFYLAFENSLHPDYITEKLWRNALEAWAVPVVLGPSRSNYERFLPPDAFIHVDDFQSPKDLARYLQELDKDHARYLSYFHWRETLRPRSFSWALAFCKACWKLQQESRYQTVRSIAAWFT
# Test: Test whether inhibitor is a slow substrate or an inactivator of FucT V (pre-incubation, then GDP-[U-14C]-fucose transfer)
# Assay type: biochemical
# Settings: 0.010 mM inhibitor, 2.1 munits FucT V, 0.30 mM LacNAc-b-O-(CH2)5CO2CH3, 10 mM MnCl2, 100 mM MES pH 6.0, incubation 0-80 min at room temperature
# Method: A 0.350 mL solution that contained 10 mM MnCl2, 2.1 munits FucT V, 0.30 mM LacNAc-b-O-(CH2)5 CO2 CH3, 0.010 mM inhibitor (7a, 7b, 7c, 8a, 8b, or 8c), and 100 mM MES (pH 6.0). This solution was subject to incubation at room temperature for various time periods (0, 3, 10, 20, 30, 60, 80 min). After the incubation time, a 0.050 mL aliquot was removed and GDP-[U-^14 C]-fucose was added to a final concentration of 0.050 mM to initiate the fucosyltransfer reaction. After a 30 minute reaction time period, the solution was passed through a Dowex 1 column and the amount of product determined.
row,SMILES,slow substrate or inactivator of FucT V
1,CCCO[C@@H]1O[C@H](CO)[C@@H](O)[C@H](N(C)CCN2[C@H](CO)[C@@H](O)[C@H](O)[C@H](O)[C@@H]2C)[C@H]1NC(C)=O [7b],not a slow substrate or an inactivator
2,CCCO[C@@H]1O[C@H](COCc2ccccc2)[C@@H](O)[C@H](NCCN2[C@H](COCc3ccccc3)[C@@H](OCc3ccccc3)[C@H](OCc3ccccc3)[C@H](OCc3ccccc3)[C@@H]2C)[C@H]1NC(C)=O [7a],not a slow substrate or an inactivator
3,CCCO[C@@H]1O[C@H](COCc2ccccc2)[C@@H](O[C@@H]2O[C@H](CO)[C@H](O)[C@H](O)[C@H]2O)[C@H](NCCN2[C@H](COCc3ccccc3)[C@@H](OCc3ccccc3)[C@H](OCc3ccccc3)[C@H](OCc3ccccc3)[C@@H]2C)[C@H]1NC(C)=O [8a],not a slow substrate or an inactivator

# Next, values leading:
row,slow substrate or inactivator of FucT V,SMILES
1,not a slow substrate or an inactivator,CCCO[C@@H]1O[C@H](CO)[C@@H](O)[C@H](NCCN2[C@H](CO)[C@@H](O)[C@H](O)[C@H](O)[C@@H]2C)[C@H]1NC(C)=O [7c]
2,not a slow substrate or an inactivator,CCCO[C@@H]1O[C@H](CO)[C@@H](O[C@@H]2O[C@H](CO)[C@H](O)[C@H](O)[C@H]2O)[C@H](N(C)CCN2[C@H](CO)[C@@H](O)[C@H](O)[C@H](O)[C@@H]2C)[C@H]1NC(C)=O [8b]
3,not a slow substrate or an inactivator,CCCO[C@@H]1O[C@H](CO)[C@@H](O[C@@H]2O[C@H](CO)[C@H](O)[C@H](O)[C@H]2O)[C@H](NCCN2[C@H](CO)[C@@H](O)[C@H](O)[C@H](O)[C@@H]2C)[C@H]1NC(C)=O [8c]
